The values below are quoted from earlier work in patent US6517814B2, “Macrocyclic chelants useful for metallopharmaceuticals” (Bristol-Myers Squibb Pharma Company, priority 2001, dated 2003).

Where two headings read alike, the source gives them in different places.

As to `O=C([O-])CN1CCN(CC(=O)[O-])CCN(CC(=O)[O-])CCN(CC(=O)[O-])CC1.[Gd+3]` [[Gd(DOTA]^−], the half-life (in 0.1 M HCl) is 60.2 h.
`O=C([O-])CN(CCN(CC(=O)[O-])CC(=O)[O-])CCN(CC(=O)[O-])CC(=O)[O-].[Gd+3]` [[Gd(DTPA]^2−]: for the setting “decomposes rapidly under acidic conditions”, the half-life is about 0.0167 h.

What is called half-life is how long it takes for the measured level to halve.
